From patent publication US20060193785A1, “Pharmaceutical aerosol formulations for pressurized metered dose inhalers comprising a sequestering agent” (priority 2005, published 2006)

Key:
[1] = Stability study of budesonide HFA solution formulation in anodized aluminium cans at 40° C. and 75% relative humidity; format: physicochemical
Method: A formulation for delivering a nominal dose of 200 μg of budesonide per actuation was prepared and filled in anodized aluminium canisters fitted with a metering valve having a 50 μl metering chamber.
A stability study was carried out by storing the formulation in upright (Up) and inverted (Inv) cans at 40° C. and 75% relative humidity. After three months of storage under these conditions the percent recovery of the active ingredient was very good. At the same time, the addition of small quantities of phosphoric acid appears to reduce the main oxidation degradation product, which is the 21-aldehyde content of the budesonide formulation.

[2] = TA 2005 stability in presence of sulphuric acid, upright Teflon-coated cans at 40° C.; format: physicochemical; conditions: 0.075 M sulphuric acid in a concentration of 0.0018 to 0.0054% w/w
Method: A formulation of 8-hydroxy-5-[(1R)-1-hydroxy-2-[[(1R)-2-(4-methoxyphenyl)-1-methyl ethyl]amino]ethyl]-2(1H)-quinolinone hydrochloride (TA 2005) for delivering a nominal dose of 1 μg of active ingredient per actuation, was prepared with the following formulation: […]
The formulation (120 actuations/canister, overage of 30 actuations) was filled in aluminium canisters having the internal surface coated with Teflon and fitted with a metering valve having a 63 μl metering chamber.
A stability study was carried out by storing the formulation in upright cans at 40° C. The percent recovery of the active ingredient after one month of storage under these conditions is reported in the following: […]

Structure (SMILES) | effect of small quantities of phosphoric acid on 21-aldehyde content (main oxidation degradation product) [1] | chemical stability [2]
CCCC1O[C@@H]2C[C@H]3[C@@H]4CCC5=CC(=O)C=C[C@]5(C)[C@H]4[C@@H](O)C[C@]3(C)[C@]2(C(=O)CO)O1 (some centres unmarked) [Budesonide, budesonide] | reduce | –
COc1ccc(C[C@@H](C)NC[C@H](O)c2ccc(O)c3[nH]c(=O)ccc23)cc1.Cl [TA 2005, 8-hydroxy-5-[(1R)-1-hydroxy-2-[[(1R)-2-(4-methoxyphenyl)-1-methylethyl]amino]ethyl]-2(1H)-quinolinone hydrochloride] | – | improved
